Values quoted from earlier work, collected in patent publication US20230116647A1 (Bausch Health Ireland Limited, priority 2020, published 2023).

Columns and labels:
[1] = test system: Hepatic Encephalopathy; details: mouse, in vivo; cited from earlier work
[2] = test system: proteoglycan (PG)-induced ankylosing spondylitis; details: administered for 4 consecutive weeks; cited from earlier work
[3] = test system: Minimal Hepatic Encephalopathy; details: cited from earlier work
[4] = test system: visceral hyperalgesia; details: rat, in vivo; cited from earlier work
[5] = test system: NASH; details: after 6 months of therapy; all P<0.05; cited from earlier work
[6] = test system: species of Staphylococcus, Streptococcus, Enterococcus, and Enterobacteriaceae; details: cited from earlier work

Compound	microbiota function (endotoxin, deconjugation and formation of secondary bile acids) [1]	systemic inflammation (serum IL-1β, IL-6), intestinal barrier, microbiota composition and function [1]	inflammatory factors, such as TNF-α, IL-6, IL-17A, and IL-23 [2]	severity of ankylosing spondylitis [2]	responders in whom all alterations of the immune system were normalized ([3]; human, in vivo)	effect on alterations of the immune system in non-responders ([3]; non-responders)	mucosal inflammation, measured by levels of IL-17, IL-6 and TNF-α [4]	overall quantity of bacteria in the ileum [4]	homeostatic model assessment, ALT, AST, γ-glutamyl transferase, endotoxin, toll-like receptor-4, IL-6, TNF-α, CK-18, NAFLD-liver fat score [5]	in vitro activity against bacteria [6]	elevation in IL-17, IL-6, or TNF-α [4]	visceral pain [4]
CO[C@H]1/C=C/O[C@@]2(C)Oc3c(C)c(O)c4c(O)c(c5c(nc6cc(C)ccn65)c4c3C2=O)NC(=O)/C(C)=C\C=C\[C@H](C)[C@H](O)[C@@H](C)[C@@H](O)[C@@H](C)[C@H](OC(C)=O)[C@@H]1C [rifaximin, Rifaximin]	favorably impacted	improved	down-regulation	significantly reduced	59%	normalizes only IL-6, CCL20, and differentiation of T lymphocytes to Th22	decreased	decreased	significant reduction	active	–	–
neomycin	–	–	–	–	–	–	–	–	–	–	did not prevent	did not decrease
